# Results published in patent US20100062478A1, “DRUG FOR ANALYSIS OF WATER TRANSPORT FUNCTION OF MEMBRANE PROTEIN IN BIOLOGICAL TISSUE” (priority 2007, published 2010).
# Test system: aquaporin
# Experiment: Immersion of round radish slices in red food coloring water (Reference Example 1)
# Description: Using radish that was cut into round slices with thicknesses of 6-10 cm, the bottom faces of the round slices were immersed in red food coloring water for 1-16 hours, As the red food coloring, Red No. 102 (chemical name: 7-hydroxy-8-(4-sulfonaphthylazo)-1,3-naphthylenedisulfonic acid=trisodium salt=1½ hydrate) was used.
compound,measurement,setting,value
"O.O.O.O=S(=O)([O-])c1cc(S(=O)(=O)[O-])c2c(N=Nc3ccc(S(=O)(=O)[O-])c4ccccc34)c(O)ccc2c1.O=S(=O)([O-])c1cc(S(=O)(=O)[O-])c2c(N=Nc3ccc(S(=O)(=O)[O-])c4ccccc34)c(O)ccc2c1.[Na+].[Na+].[Na+].[Na+].[Na+].[Na+] [Red No. 102, 7-hydroxy-8-(4-sulfonaphthylazo)-1,3-naphthylenedisulfonic acid=trisodium salt=1½ hydrate]",permeation of red food coloring into radish tissue,"bottom face of round slices immersed, one hour elapsed",had soaked into the connective tissue at the periphery of the round slices from the bottom face
same,permeation of red food coloring into radish tissue,round slices immersed for 16 hours,sites permeated by red food coloring water were not found anywhere other than the connective tissue
